Measured values as given in patent publication US20080145316A1, “Skin coating with microbial indicator” (priority 2006, published 2008).

Experiments:
S. aureus [1] = experiment: Colour change of cured skin sealant film containing indicator dye on contact with S. aureus suspension; conditions: 100 μL S. aureus 10^6 CFU/mL on cured InteguSeal film, dye 200-300 ppm
Procedure: Reichardt's dye (from Sigma-Aldrich Chemical Co. Inc., Milwaukee Wis.) was mixed into 2 grams of InteguSeal® skin sealant (Medlogic Global Ltd., Cornwall, UK) containing an extra 0.2 gram of tributyl o-acetylcitrate placticizer (from Sigma-Aldrich) to give a deep blue solution with 200 ppm concentration of the dye. A drop (25 mg) of the mixture was then placed onto a microscope glass slide (5 cm×7.5 cm) and spread out using a glass rod to give thin coating smear (3 cm×2 cm). After complete cure had occurred (5 minutes) the cured film was exposed to a suspension of S. aureus (gram positive bacteria) at 10^6 CFU/mL (colony forming units). 100 μL of this suspension was placed onto a spot on the cured film and the area observed. In less than 10 seconds the area in contact with the bacteria suspension decolorized, visually indicating the contamination. When a 100 μL sample of the control media broth or water alone was placed on the sealant no color discharge was observed.
A 2 gram blue-purple solution of 300 ppm Chrome Azurol S (from Sigma-Aldrich) in InteguSeal® skin sealant was prepared to give a 300 ppm concentration of the dye. A drop 25 mg of the mixture was placed onto a glass slide and spread using a glass rod to give a thin smear. The sealant was allowed to fully cure (5 minutes). After this time 100 μL suspension of S. aureus at 10^6 CFU/mL was placed on the cure sealant and then visually observed for a color change.
A 2 gram solution of 300 ppm Phenol Red (from Sigma-Aldrich) in InteguSeal® skin sealant was prepared by mixing the ingredients to give a pale pink-gray liquid. 25 mg of the mixture was then placed onto a glass slide and spread out using a glass rod to give a thin coating smear on the glass. After the mixture fully cured (5 minutes) 100 μL of suspension of S. aureus bacteria at 10^6 CFU/mL was placed onto the cured sealant and visually observed for any color change. […] No color change or development was observed when the color media or water was placed on the sealant film.
A 2 gram sample of 300 ppm Eriochrome Blue Black B (from Sigma-Aldrich) in InteguSeal® skin sealant was prepared by mixing the ingredients to give a gray-blue mixture. 25 mg of the mixture was placed on a glass slide and spread with a glass rod to give a thin smear. The film was allowed to fully cure (5 minutes) and then 100 μL of S. aureus suspension at 10^6 CFU/mL was applied to the cured film and observed for a color change. […] No color change was observed when control media or water was applied to the film.

S. aureus [2] = experiment: Color change measurement with spectrometer (Minolta cm-2600d), film area before and after exposure to microbes; conditions: CIELAB, cured InteguSeal film before vs after exposure to microbes
Source text: The color change inherent in the skin coating with indicator may be considered as a visual indicator with the user visually observing a color change as a signal that infection or microbial contamination is present, or the color change could also be measured electronically. Such measurements could be conducted using an optical device or other spectroscopic methods known to those skilled in the art to measure changes in color such as spectrophotometers and spectrodenitometers. The instruments measure color space (as described in “Pocket guide to digital printing” (1997) by Frank Cost, Delmar Publishers Inc., at page 144), the most widely used color space is CIELAB. This defines three variables, L*, a*, and b*, that have the following meaning:
Because CIELAB color space is somewhat uniform, a single number can be calculated that represents the difference between two colors as perceived by the human being. This difference is termed ΔE and is calculated by taking the square root of the sum of the squares of the three differences (ΔL*, Δa*, and Δb*) between the two colors (i.e. starting color and after color change).
Although in each of the examples described above the color change when in contact with microbes was clearly visible it would also be possible to measure this color change with an optical color change meter or sensor. This was conduced on Examples 1, 2, and 3 by illustration. The color change was measured using a spectrometer (Minolta cm-2600d. Minolta Co., Japan) and the reading obtained by measuring the film area before and after exposure to microbes. The reading was recorded in units of ΔE.

E. coli = experiment: Colour change of cured film containing indicator dye on contact with E. coli suspension; conditions: for time to visible color change of film / visually observed color change: 100 μL E. coli 10^5 CFU/mL on cured InteguSeal film, dye 200-300 ppm
Procedure: A 2 gram solution of 300 ppm Phenol Red (from Sigma-Aldrich) in InteguSeal® skin sealant was prepared by mixing the ingredients to give a pale pink-gray liquid. 25 mg of the mixture was then placed onto a glass slide and spread out using a glass rod to give a thin coating smear on the glass. After the mixture fully cured (5 minutes) 100 μL of suspension of E. coli bacteria at 10^5 CFU/mL was placed onto the cured sealant and visually observed for any color change. […] No color change or development was observed when the color media or water was placed on the sealant film.
(§1) Reichardt's dye (from Sigma-Aldrich) was mixed into 2 grams of InteguSeal® skin sealant containing an extra 0.2 gram of tributyl o-acetylcitrate placticizer (from Sigma-Aldrich) to give a deep blue solution with 200 ppm concentration of the dye. A drop (25 mg) of the mixture was then placed onto a microscope glass slide (5 cm×7.5 cm) and spread out using a glass rod to give thin coating smear (3 cm×2 cm). After complete cure had occurred (5 minutes) the cured film was exposed to a suspension of E. coli (gram negative bacteria) at 10^5 CFU/mL (colony forming units). 100 μL of this suspension was placed onto a spot on the cured film and the area observed. In less than 10 seconds the area in contact with the bacteria suspension decolorized, visually indicating the contamination. When a 100 μL sample of the control media broth or water alone was placed on the sealant no color discharge was observed. On a separate untouched part of the cured film was placed 100 μL suspension of A. niger (mold) at 10^5 CFU/mL and the area again observed. In less than 10 seconds the Reichardt's dye had decolorized where the mold suspension was in contact with the film.
Phenol red was dissolved in 3 other curable resins at a concentration of 300 ppm and tested with E. coli as described in example 5 above. The resins tried were: • Elmer's glue-all (Elmer's Products Inc., Columbus Ohio) • Contact cement (DAP Weldwood Inc., Dayton, Ohio) • Gelatin USP (unflavored. The Kroger Co., Cincinnati, Ohio) 100 μL suspension of E. coli was then placed on the cured film and visually observed. In all three resins the area in direct contact with the bacteria suspension turned red.

A. niger = experiment: Colour change of cured skin sealant film containing indicator dye on contact with A. niger suspension; conditions: 100 μL A. niger (mold) 10^5 CFU/mL on cured InteguSeal film, dye 200 ppm
Procedure: as §1

Row | SMILES | time to visible color change of film (S. aureus [1]) | visually observed color change (S. aureus [1]) | color change ΔE (S. aureus [2]) | time to visible color change of film (E. coli) | visually observed color change (E. coli) | visually observed color change in other curable resins (E. coli; 300 ppm dye in Elmer's glue-all, Contact cement, Gelatin USP, 100 μL E. coli suspension on cured film, all three resins) | time to visible color change of film (A. niger) | visually observed color change (A. niger)
1 | CC1=C/C(=C(\c2cc(C)c(O)c(C(=O)[O-])c2)c2c(Cl)ccc(S(=O)(=O)[O-])c2Cl)C=C(C(=O)[O-])C1=O.[Na+].[Na+].[Na+] [Chrome Azurol S] | ≤ 5 s | red color developed | 27 ΔE |  |  |  |  | 
2 | O=S(=O)([O-])c1cc(O)c(/N=N/c2ccc3ccccc3c2O)c2ccccc12.[Na+] [Eriochrome Blue Black B] | less than 5 seconds | film color was discharged to leave a colorless spot |  |  |  |  |  | 
3 | O=S1(=O)OC(c2ccc(O)cc2)(c2ccc(O)cc2)c2ccccc21 [Phenol Red, phenolsulfonephthalein] | less than 5 seconds | bright red color developed | 35 ΔE | less than 5 seconds | bright red color developed | turned red |  | 
4 | [O-]c1c(-c2ccccc2)cc(-[n+]2c(-c3ccccc3)cc(-c3ccccc3)cc2-c2ccccc2)cc1-c1ccccc1 [Reichardt's dye, 4-(2,4,6-triphenylpyridinium-1-yl)-2,6-diphenylphenolate] | less than 10 seconds | decolorized | 32 ΔE | less than 10 seconds | decolorized |  | less than 10 seconds | decolorized
